Earlier results as cited in patent US20080044815A1, “Genetic Screen for Interaction Interface Mapping” (priority 2003, published 2008).

Columns and labels:
[1] = tested on: nerve growth factor (NGF)-deprived neurons; conditions: Harris et al. 2002
neurons = conditions: Saporito et al. 1999
embryonic neurons = conditions: Borasio et al. 1998

## CCSCc1ccc2c(c1)c1c3c(c4c5cc(CSCC)ccc5n5c4c1n2[C@H]1C[C@](O)(C(=O)OC)[C@]5(C)O1)CNC3=O [CEP-1347]
[1]
  metabolism and growth of NGF-deprived neurons: preserve the metabolism and growth
neurons
  loss of neurons in vivo: attenuate the loss of neurons in vivo
Embryonic neurons
  survival of embryonic neurons: support the survival of embryonic neurons
